Read-outs that look alike come from different tables or passages of the source.
Assays:
VCAM-1 = test: Cell surface ELISA for VCAM-1 in human aortic smooth muscle cells (HASMC), interleukin-4 induced; format: cell-based; conditions: 50 μm; for VCAM-1 (Avg.) % inh.: average of HSMC-1 to HSMC-3; for HSMC-1 % inh. of VCAM-1: experiment HSMC-1, interleukin-4, about 20 hr; for HSMC-2 % inh. of VCAM-1: experiment HSMC-2, interleukin-4, about 20 hr; for HSMC-3 % inh. of VCAM-1: experiment HSMC-3, interleukin-4, about 20 hr
Procedure: Cell Surface ELISA for VCAM-1/ICAM-1
Proliferating human umbilical vein endothelial cells (HUVEC) or human aortic smooth muscle cells (HASMC) from Clonetics (San Diego, Calif.) were plated onto 96-well plates in 100 μL medium per well at 20,000 cells per cm^2. The cultures were maintained in growth medium (EGM or SMGM2, Clonetics, San Diego, Calif.) for two days prior to addition of cytokines or drugs. Cytokines plus or minus compounds were added for 20 to 24 hours prior to analysis for adhesion molecule levels. Tumor necrosis factor (Genzyme, Cambridge, Mass.) was added to cultures at 500-1000 units/mL. Interleukin-4 (GIBCO-BRL, Gaithersburg, Md.) was added to cultures at 100-200 pg/mL. (Additions were made by transferring 100 [μL of cytokines plus compounds serially diluted on a separate 96-well plate into the plates containing cells. The medium on the cultures was not exchanged prior to addition of effectors). The culture medium was removed, and the monolayers were washed twice with Hanks buffered saline solution (HBSS) at room temperature. The primary antibody (anti-human VCAM-1 from Upstate Biotechnology, Inc., Lake Placid, N.Y. or anti-human ICAM-1 from Immunotech, Inc., Westbrook, Me.) was added to each well (1 μg/mL in HBSS plus 5% newborn calf serum, GIBCO-BRL, Gaithersburg, Md.) and incubated at 37° C. for 1 hr. The wells were washed twice with HBSS, then 100 μL of a 1/1000 dilution of goat anti-mouse IgG conjugated to horse radish peroxidase (BioRad, Hercules, Calif.) in HBSS plus 5% newborn calf serum was added to each well and incubated for 1 hr at 37° C. The wells were washed three times with HBSS, then 100 μL of TMB substrate (BioRad, Hercules, Calif.) was added to each well. The reaction was stopped after blue color developed by addition of 50 μL of 1N H2 SO4. Absorbance is measured at 450 nm with a plate reader. IC50 values were determined from curves of absorbance values obtained from serial dilutions of compounds (dissolved in dimethyl sulfoxide).
The IC50 value is defined as the drug concentration that inhibits the cytokine-induced adhesion molecule expression by 50%. Maximal values for adhesion molecule expression in cytokine-induced cultures was […] the basal level of adhesion molecule expression (minus cytokines) in the cultures to determine the level of induction. […] Each drug concentration was tested in quadruplicate wells. Single point tests of compounds at 50 μM were assayed as described for IC50 determinations, except that the data represent the level of inhibition without correction for basal expression. (Basal adhesion molecule expression was 10-20% of the total induced expression). Table 1 summarizes the ability of various compounds of this invention to inhibit VCAM-1 using human aortic smooth muscle cells (HASMC). In these experiments, the cells were coincubated with interleukin-4 and the compounds listed about 20 hr before assaying cell surface VCAM-1 levels. Each column represents a separate experiment.

[1] = test system: serum cholesterol, LDL, HDL, triglycerides; test: Serum lipids and lipoprotein cholesterol in cholesterol-fed female New Zealand White rabbits; format: in vivo; conditions: Oryctolagus cuniculus, po; for response vs control in vivo at 0.4 %: 168 h; for response vs control in vivo at 0.6 %: 336 h, diet 0.6%, 14 days
Outline: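 Female New Zealand White rabbits fed 0.2% cholesterol chow sprayed with 0.4% compound (some at 0.26% or 0.6%) for 7 days (0.6% arm, 14 days). Fasted serum: total cholesterol and triglycerides enzymatically (mg/dL); VLDL/LDL/HDL separated by Sepharose 6HR gel-filtration HPLC, post-column cholesterol reagent at 37 °C, A500.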

[2] = rabbit serum, diet 0.4%, 7 days, read-out: HDL cholesterol, percent of control
[3] = rabbit serum, diet 0.4%, 7 days, read-out: LDL cholesterol, percent of control
[4] = rabbit serum, diet 0.4%, 7 days, read-out: TRIG (triglycerides), percent of control
[5] = rabbit serum, diet 0.4%, 7 days, read-out: chol tot. (total cholesterol), percent of control

Row | SMILES | VCAM-1 (Avg.) % inh. (VCAM-1) | HSMC-1 % inh. of VCAM-1 (VCAM-1) | HSMC-2 % inh. of VCAM-1 (VCAM-1) | HSMC-3 % inh. of VCAM-1 (VCAM-1) | response vs control in vivo at 0.4 % [1, 2] | response vs control in vivo at 0.4 % [1, 3] | response vs control in vivo at 0.4 % [1, 4] | response vs control in vivo at 0.4 % [1, 5] | response vs control in vivo at 0.6 % ([1]; rabbit serum, read-out: TRIG (triglycerides), percent of control) | response vs control in vivo at 0.6 % ([1]; rabbit serum, read-out: chol tot. (total cholesterol), percent of control) | response vs control in vivo at 0.4 % ([1]; read-out: HDL cholesterol, percent of control) | response vs control in vivo at 0.4 % ([1]; read-out: LDL cholesterol, percent of control) | response vs control in vivo at 0.4 % ([1]; read-out: TRIG (triglycerides), percent of control) | response vs control in vivo at 0.4 % ([1]; read-out: chol tot. (total cholesterol), percent of control)
1 | CC(C)(C)c1cc(OC[Si](C)(C)c2ccccc2)cc(C(C)(C)C)c1OC(=O)CCC(=O)O [MDL 103,076, 2,6-Di-t-butyl-4-[(dimethylphenylsilyl)methyloxy]phenol succinic acid ester] | 43.9% | 30.6% | 55.0% | 46.0% |  |  |  |  |  |  |  |  |  | 
2 | CC(C)(C)c1cc(SC[Si](C)(C)c2ccccc2)cc(C(C)(C)C)c1OC(=O)CCC(=O)O [MDL 103,141, 2,6-Di-t-butyl-4-[(dimethylphenylsilyl)methylthio]phenol sucinic acid ester] | 31.2% | 13.7% | 47.0% | 33.0% |  |  |  |  |  |  |  |  |  | 
3 | CC(=O)Oc1c(C(C)(C)C)cc(OC[Si](C)(C)c2ccccc2)cc1C(C)(C)C [MDL 103,377, 2,6-Di-t-butyl-4-[(dimethylphenylsilyl)methyloxy]phenol acetic acid ester] | 45.5% |  | 45.0% | 46.0% |  |  |  |  |  |  |  |  |  | 
4 | CC(C)(C)c1cc(OC[Si](C)(C)c2ccccc2)ccc1O [MDL 103,491, 2-t-Butyl-4-[(dimethylphenylsilyl)methyloxy]phenol] | 53.0% |  | 57.0% | 49.0% | 103% | 81% | 134% | 85% | 216% | 139% |  |  |  | 
5 | CN(C)c1ccc([Si](C)(C)COc2cc(C(C)(C)C)c(O)c(C(C)(C)C)c2)cc1 [MDL 104,556, 2,6-Di-t-butyl-4-[(4-N,N-dimethylaminophenyldimethylsilyl)methyloxy]phenol] | 56.7% | 54.1% | 58.0% | 58.0% | 116% | 53% | 81% | 47% |  |  |  |  |  | 
6 | CC(C)(C)c1cc(OC[Si](C)(c2ccccc2)c2ccccc2)cc(C(C)(C)C)c1O [MDL 104,599, 2,6-Di-t-butyl-4-[(diphenylmethylsilyl)methloxy]phenol] | 45.7% | 50.1% | 38.0% | 49.0% | 105% | 71% | 64% | 76% |  |  |  |  |  | 
7 | CC(C)(C)c1cc(OC[Si](C)(C)c2ccccc2)c(C(C)(C)C)cc1O [MDL 104,962, 2,5-Di-t-butyl-4-[(dimethylphenylsilyl)methyloxy]phenol] |  |  |  |  | 163% | 105% | 159% | 118% |  |  |  |  |  | 
8 | Cc1cc(OC[Si](C)(C)c2ccccc2)c(C)c(C)c1O [MDL 105,314, 2,3,6-Trimethyl-4-[(dimethylphenylsdilyl)methloxy]phenol] | 28.2% | 8.7% | 38.0% | 38.0% |  |  |  |  |  |  |  |  |  | 
9 | CC(=O)Oc1ccc(OC[Si](C)(C)c2ccccc2)cc1C(C)(C)C [MDL 105,443, 2-t-Butyl-4-[(dimethylphenylsilyl)methyloxy]phenol acetic acid ester] | 25.8% | 11.4% | 44.0% | 22.0% | 115% | 97% | 127% | 98% |  |  |  |  |  | 
10 | CC(C)(C)c1cc(OC[Si](C)(C)c2ccc(C(F)(F)F)cc2)cc(C(C)(C)C)c1O [MDL 105,975, 2,6-Di-t-butyl-4-[(dimethyl-4-trifluoromethylphenylsilyl)methyloxy]phenol] | 19.8% |  | 20.0% | 51.0% |  |  |  |  |  |  | 76% | 77% | 143% | 69%
11 | COc1ccc([Si](C)(C)COc2ccc(O)c(C(C)(C)C)c2)cc1 [MDL 106,834, 2-t-Butyl-4-[(dimethyl-p-methoxylphenylsilyl)methyloxy]phenol] |  |  |  |  | 61% | 89% | 98% | 67% |  |  |  |  |  | 
